Measured values taken from patent US20230123589A1, “MOLECULAR MOBILITY ENHANCER OR MOLECULAR DRYING ENHANCER” (TEKDRY INTERNATIONAL, INC., priority 2020, published 2023).

Test: Evaluation of vapor diffusion (chemical indicators in 2-meter long 4-mm inner diameter polytetrafluoroethylene tube)
Assay type: physicochemical
Details: 50° C., less than 10 torr, 15-minute time period
[1] = introduced into chamber extension
[2] = introduced into process chamber

From the text: A typical diffusion apparatus for conducting these evaluations includes a stainless-steel pressure chamber which is connected to a smaller stainless-steel extension chamber. Connection is made by means of a stainless-steel tube that contains a valve for isolating vapor flow between the vacuum chamber and the chamber extension. The chamber extension contains isolated compartments that admitted molecular mobility enhancer (MME) and/or liquid or solid agent components. The vacuum chamber and the chamber extension are independently heated. […] The isolated compartments within the chamber extension were independently heated. […] The chamber extension as a whole as well as the isolated compartments within the chamber extension are connected to MME and transport moiety sources via a valve and a conduit connected to a flow controller. The chamber extension is also outfitted with a door that can be used for placing solid agent sources within the extension. The entire system (vacuum chamber and chamber extension) is connected to a vacuum system e.g., (comprising a vacuum pump) capable of reducing the pressure and vaporizing the molecular mobility enhancer and liquid or solid transport moieties.
The tube and its contents were placed in the process chamber of the diffusion system. In this test the process chamber was heated to 50° C. […] The door to the diffusion system was closed and sealed. The diffusion system was evacuated to a pressure less than 10 torr. Multiple vaporization/diffusion cycles were performed over the course of a 15-minute time period. At the end of the process the diffusion system was brought to atmosphere and the tube and its contents were removed from the process chamber.
The tube and its contents were placed in the process chamber of the diffusion system. In this test the diffusion system was heated to 50° C. […] The door to the diffusion system was closed and sealed. The diffusion system including the chamber extension was evacuated to a pressure less than 10 torr. Multiple vaporization/diffusion cycles were performed over the course of a 15-minute time period.

Compound | color change on chemical indicators: exposure of entire inner length of the tube to transport moiety vapor [1] | color change on chemical indicators: exposure of entire inner length of the tube to transport moiety vapor [2]
OO [aqueous hydrogen peroxide (30 wt %), hydrogen peroxide] | entire inner length of the tube had not been exposed | entire inner length of the tube had not been exposed
CC(C)O [isopropanol] | entire inner length of the tube had not been exposed | entire inner length of the tube had not been exposed
